Assay results reported in the Deep4Chem optical property database.
One block for each compound: values may come before it.

Test: solvent given as SMILES

emission maximum (in ClCCl): 513 nm
SMILES: CCCCCCCCOc1ccc(C2=C3C(C)=CC(C)=[N+]3[B-](F)(F)n3c(C)cc(C)c32)cc1

SMILES: CCCCCCCC(=O)Oc1ccc2c3cccc4c(OC(=O)CCCCCCC)ccc(c5cccc1c52)c43
emission maximum (in C1CCOC1): 454.01 nm
emission maximum (in Cc1ccccc1): 456.99 nm
emission maximum (in ClC(Cl)(Cl)Cl): 456.99 nm
emission maximum (in ClC(Cl)Cl): 456.01 nm
emission maximum (in ClCCl): 455 nm
emission maximum (in c1ccncc1): 459.02 nm

emission maximum (in C1CCOC1): 451.19 nm
SMILES: CC[NH+](CC)c1ccc(-c2nc3c4ccccc4n(C)c3nc2-c2ccc(B(c3c(C)cc(C)cc3C)c3c(C)cc(C)cc3C)cc2)cc1

emission maximum (in ClCCl): 430 nm
SMILES: CC(=O)c1ccc(-c2cc3c(ccc4sccc43)s2)cc1

emission maximum (in ClCCl): 537 nm
SMILES: COc1ccc(-c2cnc3cccc(-c4ccc(C(C)=O)cc4)n23)cc1

SMILES: CC(=O)c1nc(-c2ccc(N(c3ccccc3)c3ccccc3)cc2)oc1C
emission maximum (in CC#N): 452 nm
emission maximum (in CCCCCC): 385 nm
emission maximum (in CCO): 468 nm
emission maximum (in CCOC(C)=O): 419 nm
emission maximum (in CCOCC): 408 nm
emission maximum (in ClCCl): 448 nm

emission maximum (in ClCCl): 668 nm
SMILES: CC(C)c1cccc(C(C)C)c1N1C(=O)c2ccc3cc4c(cc5ccc6c7c(ccc4c57)C(=O)N(c4c(C(C)C)cccc4C(C)C)C6=O)c4ccc(c2c34)C1=O

SMILES: c1ccc(-c2nc(-c3ccccc3)nc(-c3cc(-n4c5ccccc5c5ccccc54)cc(-n4c5ccccc5c5ccccc54)c3)n2)cc1
emission maximum (in C1CCCCC1): 409.39 nm
emission maximum (in C1CCOC1): 546.94 nm
emission maximum (in Cc1ccccc1): 475.1 nm

emission maximum (in C1CCOC1): 526 nm
SMILES: C[Si]1(c2ccccc2)C(c2ccc3c(c2)c2ccccc2n3-c2ccccc2)=C(c2ccccc2)C(c2ccccc2)=C1c1ccc2c(c1)c1ccccc1n2-c1ccccc1

SMILES: CCCCCCCCCCCCn1nnc(-c2ccc(C#Cc3ccc(C#Cc4ccc(-c5nnn(CCCCCCCCCCCC)n5)cc4)c4nc5c6ccccc6c6ccccc6c5nc34)cc2)n1
emission maximum (in C1CCOC1): 495 nm
emission maximum (in Cc1ccccc1): 488 nm
emission maximum (in ClCCl): 502 nm

SMILES: CCCCCCCCN1c2ccccc2Sc2cc(/C=C/c3ccc(N(c4ccc(/C=C/c5ccc6c(c5)Sc5ccccc5N6CCCCCCCC)cc4)c4ccc(/C=C/c5ccc(/C=C/c6ccc(N(c7ccc(/C=C/c8ccc9c(c8)Sc8ccccc8N9CCCCCCCC)cc7)c7ccc(/C=C/c8ccc9c(c8)Sc8ccccc8N9CCCCCCCC)cc7)cc6)c6nsnc56)cc4)cc3)ccc21
emission maximum (in C1CCOC1): 654 nm
emission maximum (in CCOC(C)=O): 644 nm
emission maximum (in CN(C)C=O): 750 nm
emission maximum (in Cc1ccccc1): 620 nm
emission maximum (in ClC(Cl)Cl): 663 nm
emission maximum (in ClCCl): 710 nm

emission maximum (in CS(C)=O): 420 nm
SMILES: Clc1cccc(-c2nc3sc4ccccc4c3s2)c1

emission maximum (in ClCCl): 489 nm
SMILES: C(=C\c1cc(-c2ccc3ccccc3c2)c(/C=C/c2ccc(N(c3ccccc3)c3ccccc3)cc2)cc1-c1ccc2ccccc2c1)/c1ccc(N(c2ccccc2)c2ccccc2)cc1

SMILES: Fc1cc(-c2nc(-c3ccccc3)nc(-c3ccccc3)n2)ccc1-n1c2ccccc2c2c3c(ccc21)C1(c2ccccc2-c2ccccc21)c1ccccc1-3
emission maximum (in C1CCOC1): 487.96 nm
emission maximum (in C1COCCO1): 461.11 nm
emission maximum (in CN(C)C=O): 533.56 nm
emission maximum (in Cc1ccccc1): 448 nm
emission maximum (in ClC(Cl)Cl): 500.23 nm

emission maximum (in ClCCl): 606 nm
SMILES: CCCCCCOC(=O)/C=C/C1=CC2=C(c3c(C)cc(C)cc3C)c3cc(/C=C/C(=O)OCCCCCC)cn3[B-](F)(F)[N+]2=C1

emission maximum (in C1CCOC1): 444 nm
SMILES: CCCCCOc1cc2oc(=O)c3c4ccc(C#N)cc4c4ccc5cccc6c(c1)c2c3c4c56

SMILES: COC(=O)/C(C#N)=c1\s/c(=c2/s/c(=C(/C#N)C(=O)OC)c3cc(-c4ccc5c(c4)C(C)(C)c4ccccc4-5)sc23)c2sc(-c3ccc4c(c3)C(C)(C)c3ccccc3-4)cc12
emission maximum (in Cc1ccccc1): 682 nm

emission maximum (in C1CCOC1): 452 nm
SMILES: O=P(c1c2ccccc2cc2ccccc12)(c1c2ccccc2cc2ccccc12)c1c2ccccc2cc2ccccc12

SMILES: Cc1cc(C(F)(F)F)nc2c1ccc1nc(-c3ccc(Cl)cc3)cn12
emission maximum (in CC#N): 463 nm
emission maximum (in CCCCCC): 439 nm
emission maximum (in CCCCOC(C)=O): 455 nm
emission maximum (in CCOC(C)=O): 457 nm
emission maximum (in CO): 459 nm
emission maximum (in Cc1ccccc1): 455 nm
emission maximum (in ClC(Cl)Cl): 452 nm
emission maximum (in ClCCl): 455 nm
emission maximum (in c1ccccc1): 455 nm

emission maximum (in ClC(Cl)Cl): 420 nm
SMILES: N#Cc1ccc2cc(C#N)c3ccc4ccccc4c3c2c1

emission maximum (in CC#N): 390 nm
emission maximum (in CCCCOCCCC): 388 nm
emission maximum (in CO): 388 nm
SMILES: COc1nc(Nc2ccc3ccc4cccc5ccc2c3c45)nc(OC)n1

emission maximum (in CC#N): 437 nm
emission maximum (in ClCCl): 438 nm
SMILES: O=c1c2cc(F)ccc2nc2n1[B-](F)(F)[n+]1ccccc1-2

emission maximum (in CC#N): 527 nm
emission maximum (in CO): 579 nm
SMILES: COc1ccc(-c2c(-c3ccc(OC)cc3)c3c4c(cccc4c2-c2ccccc2)C(=O)c2ccccc2-3)cc1

emission maximum (in ClC(Cl)Cl): 419 nm
SMILES: CC(=O)OCCN1C(=O)c2cccc3c(Oc4ccccc4C)ccc(c23)C1=O

SMILES: Nc1ccc2c(c1)C(=O)O/C2=C\c1ccc(Cl)cc1
emission maximum (in CC#N): 452.9 nm
emission maximum (in CC(C)=O): 448.83 nm
emission maximum (in CC(C)CO): 483.09 nm
emission maximum (in CC(C)O): 484.97 nm
emission maximum (in CCCO): 484.5 nm
emission maximum (in CCO): 487.33 nm
emission maximum (in CCOC(C)=O): 461.68 nm
emission maximum (in CCOCC): 427.17 nm
emission maximum (in CO): 492.13 nm

emission maximum (in CC#N): 434 nm
SMILES: C(=C\c1nc2c3ccccc3c3ccccc3c2o1)/c1ccccc1

SMILES: COC(=O)C(Cc1ccc2oc(-c3ccc(-n4c5ccccc5c5ccccc54)cc3)nc2c1)NC(=O)OC(C)(C)C (stereo unspecified)
emission maximum (in C1CCCCC1): 362 nm
emission maximum (in C1CCOC1): 429 nm
emission maximum (in C1COCCO1): 400 nm
emission maximum (in CC1CCCO1): 404.01 nm
emission maximum (in CC#N): 447.01 nm
emission maximum (in CC(C)(C)O): 421 nm
emission maximum (in CC(C)=O): 432.99 nm
emission maximum (in CC(C)CC(C)(C)C): 361.01 nm
emission maximum (in CC(C)O): 431 nm
emission maximum (in CC(O)CO): 455 nm
emission maximum (in CCCCCCCO): 421.99 nm
emission maximum (in CCCCCCO): 424 nm
emission maximum (in CCCCCO): 409 nm
emission maximum (in CCCCO): 430 nm
emission maximum (in CCO): 445 nm
emission maximum (in CCOC(C)=O): 409 nm
emission maximum (in CCOCC): 402.32 nm
emission maximum (in CN(C)C=O): 438.02 nm
emission maximum (in CO): 465.98 nm
emission maximum (in CS(C)=O): 445.99 nm
emission maximum (in Cc1ccccc1): 391.01 nm
emission maximum (in OCCO): 470.01 nm

emission maximum (in ClCCl): 652 nm
SMILES: COc1ccccc1C1=[N+]2C(=C(c3ccccc3)c3c4ccccc4c(-c4ccccc4OC)n3[B-]2(F)F)c2ccccc21

SMILES: CCCCCCCCOC(=O)c1cc2ccc3ccccc3c2c(C#N)c1N
emission maximum (in Cc1ccccc1): 467 nm

emission maximum (in C1CCOC1): 374 nm
emission maximum (in C1COCCO1): 377 nm
emission maximum (in CC#N): 378 nm
emission maximum (in CCCCCCC): 359 nm
emission maximum (in CCO): 377 nm
emission maximum (in CO): 377 nm
emission maximum (in O): 378 nm
SMILES: CC1(C)CC(=O)C2=C(C1)Oc1ccc3cc(O)ccc3c1C2c1ccccn1 (stereo unspecified)

SMILES: COc1ccc(C2=[N+]3C(=Nc4c5c6ccccc6c6ccc(C(C)(C)C)cc6c5c(-c5ccc(OC)cc5)n4[B-]3(F)F)c3c2c2cc(C(C)(C)C)ccc2c2ccccc32)cc1
emission maximum (in Cc1ccccc1): 741 nm

emission maximum (in ClC(Cl)Cl): 399 nm
SMILES: COc1cc2cc(C#N)c3ccc4ccccc4c3c2cc1OC

emission maximum (in C1COCCO1): 486 nm
emission maximum (in CC#N): 526 nm
emission maximum (in CO): 522 nm
SMILES: N#Cc1ccc(/C=C/C=C/C2=NC3C(=O)NC(N)=NC3N2[C@H]2C[C@H](O)[C@@H](CO)O2)cc1 (stereo partly specified)

emission maximum (in ClCCl): 421 nm
SMILES: C(S/C=C/c1ccc(/C=C/SC=C2CCCCC2)cc1)=C1CCCCC1
